# Data from US7531320B2, “Modulation of β-catenin/TCF-activated transcription” (priority 2003, dated 2009).
# How the values were obtained:
# Type in all cases: cell-based, human
# axin2 = assay: Real Time RT-PCR in SW480 cells, axin2; settings: 25 μM; for ΔCT axin2: relative to β-actin
# Procedure: (§1) The RNeasy Midi Kit (Qiagen) was used for RNA extraction and Real Time RT-PCR was performed according to the protocol provided with the SYBR Green PCR Master Mix Kit (Perkin Elmer Biosystems, Shelton, Conn.). The primers used for cyclin D1, axin2, hnkd, c-myc, c-jun, and fra-1 amplifications were: cyclin D1 forward primer:5′-[…]-CCTGCTG-3′ (SEQ ID NO: 32) reverse primer: 5′-[…]-3′ (SEQ ID NO: 33) leading to a product size of approximately 300 bp; axin2 forward primer: 5′-[…] GGAAA-CT-3′ (SEQ ID NO: 34) and reverse primer: 5′-[…]-GAGA-3′ (SEQ ID NO: 35); hnkd forward primer: 5′-[…] TTGCGT-3′ (SEQ ID NO: 36) and the reverse primer: 5′-[…] ACGT-3′ (SEQ ID NO: 37); c-myc forward primer: 5′-GAA-[…] CTGC-3′ (SEQ ID NO: 38) and reverse primer: 5′-[…]-G-3′ (SEQ ID NO: 39); c-jun forward primer: 5′-[…]-3′ (SEQ ID NO: 40) and reverse primer: 5′-[…]-3′ (SEQ ID NO: 41); fra-1 forward primer: 5′-ACC-[…]-[…]-3′ (SEQ ID NO: 42) and reverse primer: 5′-[…]-TT-3′ (SEQ ID NO: 43). β-actin was used for normalization. […]
# (§2) 1 μg of mRNA, for each time point, was subjected to Real Time RT-PCR. Expression level of endogenous cyclin D1, c-myc, fibronectin, hnkd, axin2, c-jun, and BMP-4 were measured relative to β-actin. Quantitation of The ΔCycle of Threshold (CT) values was determined by subtracting the average values of each set by the corresponding average values obtained for β-actin. […]
# (§3) The cyclin D1 gene is inappropriately expressed in many different tumor types, and is known to be a direct target of the Wnt/β-catenin pathway (Shtutman et al., “The cyclin D1 gene is a target of the beta-catenin/LEF-1 pathway,” Proc. Natl. Acad. Sci. USA 96:5522-27 (1999); Tetsu et al., “Beta-catenin regulates expression of cyclin D1 in colon carcinoma cells,” Nature 398:422-26 (1999)). […] Expression level of endogenous cyclin D1, c-myc, fibronectin, hnkd, axin2, c-jun, and BMP-4 were measured relative to β-actin. Quantitation of The ΔCycle of Threshold (CT) values was determined by subtracting the average values of each set by the corresponding average values obtained for β-actin. […]
# c-myc = assay: Real Time RT-PCR in SW480 cells, c-myc; settings: 25 μM; for ΔCT c-myc: relative to β-actin
# Procedure: as §1, §2, §3
# SW480 cells [1] = assay: FACS cell cycle analysis (propidium iodide), SW480 cells; settings: 25 μM, 24 hours
# Procedure: FIG. 6. • A. COMPOUND 1 arrests cells in G1. FACS analysis was performed on SW480 (lower panel) and HCT116 (upper panel) cells treated for 24 hours with either COMPOUND 1 (25 μM) (right) or control (0.5% DMSO (left). 5.5×10^6 cells were fixed and stained with propidium iodide (PI). G0/G1, S, and G2/M are indicated by arrows. • B. COMPOUND 1 selectively activates caspases in colon carcinoma cell lines. SW480 and HCT116 (left graph) cells (10^5) along with the normal colonocytes, CCD18Co (right graph) were treated with either control (0.5% DMSO) or COMPOUND 1 (25 μM). 24 hours post treatment, cells were lysed and the caspase-3/7 enzymatic activities were measured. Relative fluorescence units (RFU) were calculated by subtracting the unit values of the blank (control, without cells) from the treated samples (COMPOUND 1 or control) and plotted.
# For FACS analysis, approx. 5×10^6 cells from PNRI-treated or vehicle-treated were fixed with 70% chilled ethanol and stored at −20° C. for at least 30 minutes. […] 10,000 stained cells for each sample were acquired using Beckman Coulter EPICS XL-MCL Flow Cytometry and the percentage of cells in different phase of the cell cycle was determined by Expo32 ADC software (Coulter Corporation, Miami, Fla., 33196). […]
# SW480 cells [2] = assay: Soft agar colony formation assay with SW480 cells
smiles,measurement,setting,value
O=C1C(Cc2ccc(O)cc2)N2C(=O)CCN(C(=O)NCc3ccccc3)C2CN1Cc1cccc2ccccc12 (stereo not drawn) [COMPOUND 1],mRNA axin2 (direction),axin2,↓
same,ΔCT axin2,axin2; 4 hours,0.3
same,ΔCT axin2,axin2; 8 hours,0.8
same,mRNA c-myc (direction),c-myc,↑
same,ΔCT c-myc,c-myc; 4 hours,−0.9
same,ΔCT c-myc,c-myc; 8 hours,−2.4
same,Cell cycle distribution (DNA content by FACS),SW480 cells [1],increased accumulation at G1/S-phase
same,Number of colonies formed in soft agar,SW480 cells [2]; 0.25-5 μM,dose dependent decrease
same,IC50,"SW480 cells [2]; 5000 cells/well, colonies counted after 8 days",870 ± 110 nM
